Source: paper PMC7551886, “Antitumour Effects of Astaxanthin and Adonixanthin on Glioblastoma” (Marine Drugs, 2020)

Assays:
cyclin D1 = assay: Immunoblotting, cyclin D1 expression in GL261; format: cell-based, mouse; settings: GL261, 10 µM, 48 h
Protocol: (§1) GL261 cell was seeded at 2.5 × 10^4 cells per well in 24-well plates with culture medium supplemented with 10% FBS. After 24 h of incubation, the medium was changed to DMEM containing 10% FBS and 0.1%DMSO PBS, 300 μM temozolomide, 10 μM astaxanthin, or 10 μM adonixanthin was added for 6 and 48 h. Cells were lysed in a special buffer (RIPA buffer R0278; Sigma-Aldrich, St. Louis, MO, USA) with a protease inhibitor cocktail (Sigma-Aldrich), phosphatase inhibitor cocktails 2 and 3 (Sigma-Aldrich), and sample buffer (Wako, Osaka, Japan). The protein concentration was determined by comparison with a known concentration of bovine serum albumin using the BCA Protein Assay Kit (Thermo Fisher Scientific). The amount of total protein was 2 μg. […] The band intensity was […] using an Immuno Star LD (Wako). Band intensity was measured using an LAS-4000 UV mini Luminescent Image Analyzer (Fujifilm, Tokyo Japan) and Multi Gauge Version 3.0 (Fujifilm). The phosphorylation of ERK1/2, Akt, and p38 MAPK was measured by normalizing against total ERK1/2, total Akt, and total p38 MAPK. […]

[1] = system: GL261 cells (intracranial injection); assay: Murine orthotopic glioblastoma model; format: in vivo, mouse; settings: oral 10 and 30 mg/kg for 10 days, 2 weeks after GL261 cell injection
Protocol: Murine glioblastoma cell (GL261) transplantation was performed as previously described. Briefly, mice received an intracranial injection of 1 × 10^5 cells in 2 µL of PBS using a Hamilton microliter syringe at the following coordinates: 1 mm anterior, 2 mm lateral (left of middle) to bregma, at a depth of 3 mm from the dural surface. This protocol was completed using a stereotactic frame. In the experiment of the murine orthotopic glioblastoma model, oral administration of each astaxanthin (10 and 30 mg/kg) and adonixanthin (10 and 30 mg/kg) was initiated 3 days after intracranial injection of GL261 cells and was continued for 10 days. In the experiment of the brain tissue absorption with oral astaxanthin or adonixanthin, after one week of adaptation, ICR mice were randomly divided into the following three groups: control group, astaxanthin group (50 mg/kg), and adonixanthin group (50 mg/kg). Mice were orally administered each reagent suspended in olive oil (5 mL/kg) by the daily single dose for 10 days. The control group was treated by olive oil alone (5 mL/kg). Mice were euthanized and […] perfused with cold saline for 2 min at room temperature. […] Pictures were taken using an All-in-One Fluorescence Microscope (BZ-X710; Keyence, Osaka, Japan). We assessed the maximum cross-sectional area of the tumour and tumour volume as described previously.

Bcl-2 = assay: Immunoblotting, Bcl-2 expression in GL261; format: cell-based, mouse; settings: GL261, 10 µM, 48 h
Protocol: as §1, with “μg. Equal amounts of protein in sample buffer containing 10% 2-mercaptoethanol were subjected to sodium dodecyl sulphate polyacrylamide gel electrophoresis (SDS-PAGE) in 5-20% gradient gels (SuperSep Ace; Wako), and the separated proteins were transferred to polyvinylidene difluoride membrane (Immobilon-P; Merck Millipore Corporation, Bedford, MA, USA). After blocking for 30 min with Blocking One-P (Nacalai Tesque), we incubated the membranes with primary antibodies overnight at 4 °C.” for “μg.”

[2] = system: p38 mitogen-activated protein kinase; assay: Immunoblotting, phosphorylation of p38 MAPK in GL261; format: cell-based, mouse; settings: GL261, 10 µM, 48 h
Protocol: as §1

[3] = system: intracellular ROS in GL261 cells; assay: Reactive oxygen species assay (CM-H2DCFDA); format: cell-based, mouse; settings: GL261, 1 and 10 µM, 6 h
Protocol: Intracellular radical activation within GL261 cells was measured with 5-(and-6)-chloromethyl—2′,7′-dichlorodihydrofluorescein diacetate, acetyl ester (CM-H2DCFDA; Thermo Fisher Scientific, MA, USA). Six hours after treatment of temozolomide, astaxanthin, or adonixanthin, CM-H2DCFDA was added to the culture medium and incubated at 37 °C for 1 h under shading in GL261. Fluorescence was measured using a Varioscan Flash 2.4 microplate reader (Thermo Fisher Scientific, MA, USA) at 485 (excitation)-535 nm (emission). Measurements were performed 0, 30, and 60 min after the addition of CM-H2DCFDA.

SMILES | expression of cyclin D1 (cyclin D1) | tumour enlargement (tumour area and volume) [1] | expression of Bcl-2 vs. control (Bcl-2) | phosphorylation of p38 MAPK [2] | amount of intracellular ROS [3]
CC1=C(/C=C/C(C)=C/C=C/C(C)=C/C=C/C=C(C)/C=C/C=C(C)/C=C/C2=C(C)C(=O)[C@@H](O)CC2(C)C)C(C)(C)C[C@H](O)C1=O [Astaxanthin, astaxanthin] | decreased | significantly suppressed tumour enlargement | N.S. | increased | decreased
CC1=C(/C=C/C(C)=C/C=C/C(C)=C/C=C/C=C(C)/C=C/C=C(C)/C=C/C2=C(C)C(=O)[C@@H](O)CC2(C)C)C(C)(C)C[C@H](O)C1 [Adonixanthin, adonixanthin] | decreased | significantly suppressed tumour enlargement | N.S. | increased | decreased
